From ChEMBL document CHEMBL1201862, “PubChem BioAssay data set” (2004)
Active and inactive are the calls of the source.

Key:
[1] = target: Large T antigen (Simian virus 40, UniProt P03070); type: functional, Betapolyomavirus macacae;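 also: Confirmatory-stage PubChem screen for compounds that inhibit SV40 T antigen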
[2] = target: T1, Protein skinhead-1 (Caenorhabditis elegans, UniProt P34707); type: functional
T1 sequence (P34707 whole entry): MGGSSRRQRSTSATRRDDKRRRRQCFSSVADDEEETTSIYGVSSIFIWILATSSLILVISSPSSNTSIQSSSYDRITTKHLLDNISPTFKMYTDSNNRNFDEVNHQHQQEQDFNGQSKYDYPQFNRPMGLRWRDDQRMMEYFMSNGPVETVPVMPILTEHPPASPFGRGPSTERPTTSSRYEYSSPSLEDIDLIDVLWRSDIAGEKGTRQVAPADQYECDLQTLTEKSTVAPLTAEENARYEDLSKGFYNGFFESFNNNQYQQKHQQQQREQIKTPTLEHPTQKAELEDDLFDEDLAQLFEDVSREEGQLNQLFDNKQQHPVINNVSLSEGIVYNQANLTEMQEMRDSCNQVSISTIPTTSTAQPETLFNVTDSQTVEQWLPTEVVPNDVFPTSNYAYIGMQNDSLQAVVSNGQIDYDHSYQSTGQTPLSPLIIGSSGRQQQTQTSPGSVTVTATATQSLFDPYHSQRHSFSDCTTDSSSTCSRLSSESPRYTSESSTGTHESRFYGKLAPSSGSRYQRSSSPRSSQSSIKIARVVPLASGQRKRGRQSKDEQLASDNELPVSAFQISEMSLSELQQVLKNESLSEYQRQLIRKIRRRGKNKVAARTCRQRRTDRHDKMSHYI

[3] = target: T2, Ubiquitin-conjugating enzyme E2 N (Homo sapiens, UniProt P61088); type: functional;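 also: Dose-response confirmation in a TR-FRET assay detecting UBC13-driven polyubiquitin chain formation, inhibition measured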
T2 sequence (P61088 whole entry): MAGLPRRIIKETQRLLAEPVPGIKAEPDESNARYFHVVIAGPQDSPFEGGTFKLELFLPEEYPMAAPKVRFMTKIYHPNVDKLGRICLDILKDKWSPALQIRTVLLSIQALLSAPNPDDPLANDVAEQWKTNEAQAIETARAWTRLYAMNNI

[4] = target: T3, Fatty acid synthase (Homo sapiens, UniProt P49327); test: FAS thioesterase domain inhibitors, dose response, biochemical, kinetic fluorescence intensity (AID 624326); type: functional;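 also: rate of fluorescence rise from hydrolysis of a fluorogenic O-methyl fluorescein ester substrate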
[5] = target: T3, Fatty acid synthase; test: FAS thioesterase domain inhibitors, dose response, biochemical, endpoint fluorescence intensity, uHTS hits (AID 624327); type: functional;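 also: fluorescence from hydrolysis of an O-methyl fluorescein acyl ester substrate by the enzyme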
[6] = intracellular Trypanosoma cruzi inhibitors in host cells – cell-based, plate reader, cherry-pick samples, set 3, dose response (AID 651818); type: functional;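 also: compounds incubated with infected cells for about four days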
[7] = P. falciparum Dd2 growth inhibitors, dose response, SYBR Green, cherry-picked samples (AID 1159567); type: functional, cell-based
[8] = target: T4, Rac GTPase-activating protein 1 (Homo sapiens, UniProt Q9H0H5); test: MgcRacGAP GTPase-activating activity inhibitors, confirmation, biochemical, ADP Hunter fluorescence, primary and confirmatory (AID 624330); type: functional
T4 sequence (Q9H0H5 whole entry): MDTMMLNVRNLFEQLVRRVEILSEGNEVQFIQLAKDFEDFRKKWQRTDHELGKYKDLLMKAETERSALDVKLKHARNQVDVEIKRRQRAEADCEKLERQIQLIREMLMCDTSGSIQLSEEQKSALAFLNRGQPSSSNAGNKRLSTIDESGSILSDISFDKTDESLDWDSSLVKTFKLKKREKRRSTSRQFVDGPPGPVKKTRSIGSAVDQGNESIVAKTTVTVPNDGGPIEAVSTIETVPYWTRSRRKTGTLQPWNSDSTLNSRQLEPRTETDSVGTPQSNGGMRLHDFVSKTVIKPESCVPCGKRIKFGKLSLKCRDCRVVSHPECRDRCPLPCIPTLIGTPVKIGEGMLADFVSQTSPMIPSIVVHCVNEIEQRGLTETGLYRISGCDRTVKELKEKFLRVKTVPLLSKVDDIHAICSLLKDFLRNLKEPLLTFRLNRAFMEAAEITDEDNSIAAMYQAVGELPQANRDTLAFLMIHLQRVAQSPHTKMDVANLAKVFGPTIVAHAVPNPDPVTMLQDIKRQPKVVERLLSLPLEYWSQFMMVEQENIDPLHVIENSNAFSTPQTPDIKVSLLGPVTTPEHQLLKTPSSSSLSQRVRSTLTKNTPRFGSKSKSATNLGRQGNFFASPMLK

T3 sequence (P49327 whole entry, the tested form may be a part): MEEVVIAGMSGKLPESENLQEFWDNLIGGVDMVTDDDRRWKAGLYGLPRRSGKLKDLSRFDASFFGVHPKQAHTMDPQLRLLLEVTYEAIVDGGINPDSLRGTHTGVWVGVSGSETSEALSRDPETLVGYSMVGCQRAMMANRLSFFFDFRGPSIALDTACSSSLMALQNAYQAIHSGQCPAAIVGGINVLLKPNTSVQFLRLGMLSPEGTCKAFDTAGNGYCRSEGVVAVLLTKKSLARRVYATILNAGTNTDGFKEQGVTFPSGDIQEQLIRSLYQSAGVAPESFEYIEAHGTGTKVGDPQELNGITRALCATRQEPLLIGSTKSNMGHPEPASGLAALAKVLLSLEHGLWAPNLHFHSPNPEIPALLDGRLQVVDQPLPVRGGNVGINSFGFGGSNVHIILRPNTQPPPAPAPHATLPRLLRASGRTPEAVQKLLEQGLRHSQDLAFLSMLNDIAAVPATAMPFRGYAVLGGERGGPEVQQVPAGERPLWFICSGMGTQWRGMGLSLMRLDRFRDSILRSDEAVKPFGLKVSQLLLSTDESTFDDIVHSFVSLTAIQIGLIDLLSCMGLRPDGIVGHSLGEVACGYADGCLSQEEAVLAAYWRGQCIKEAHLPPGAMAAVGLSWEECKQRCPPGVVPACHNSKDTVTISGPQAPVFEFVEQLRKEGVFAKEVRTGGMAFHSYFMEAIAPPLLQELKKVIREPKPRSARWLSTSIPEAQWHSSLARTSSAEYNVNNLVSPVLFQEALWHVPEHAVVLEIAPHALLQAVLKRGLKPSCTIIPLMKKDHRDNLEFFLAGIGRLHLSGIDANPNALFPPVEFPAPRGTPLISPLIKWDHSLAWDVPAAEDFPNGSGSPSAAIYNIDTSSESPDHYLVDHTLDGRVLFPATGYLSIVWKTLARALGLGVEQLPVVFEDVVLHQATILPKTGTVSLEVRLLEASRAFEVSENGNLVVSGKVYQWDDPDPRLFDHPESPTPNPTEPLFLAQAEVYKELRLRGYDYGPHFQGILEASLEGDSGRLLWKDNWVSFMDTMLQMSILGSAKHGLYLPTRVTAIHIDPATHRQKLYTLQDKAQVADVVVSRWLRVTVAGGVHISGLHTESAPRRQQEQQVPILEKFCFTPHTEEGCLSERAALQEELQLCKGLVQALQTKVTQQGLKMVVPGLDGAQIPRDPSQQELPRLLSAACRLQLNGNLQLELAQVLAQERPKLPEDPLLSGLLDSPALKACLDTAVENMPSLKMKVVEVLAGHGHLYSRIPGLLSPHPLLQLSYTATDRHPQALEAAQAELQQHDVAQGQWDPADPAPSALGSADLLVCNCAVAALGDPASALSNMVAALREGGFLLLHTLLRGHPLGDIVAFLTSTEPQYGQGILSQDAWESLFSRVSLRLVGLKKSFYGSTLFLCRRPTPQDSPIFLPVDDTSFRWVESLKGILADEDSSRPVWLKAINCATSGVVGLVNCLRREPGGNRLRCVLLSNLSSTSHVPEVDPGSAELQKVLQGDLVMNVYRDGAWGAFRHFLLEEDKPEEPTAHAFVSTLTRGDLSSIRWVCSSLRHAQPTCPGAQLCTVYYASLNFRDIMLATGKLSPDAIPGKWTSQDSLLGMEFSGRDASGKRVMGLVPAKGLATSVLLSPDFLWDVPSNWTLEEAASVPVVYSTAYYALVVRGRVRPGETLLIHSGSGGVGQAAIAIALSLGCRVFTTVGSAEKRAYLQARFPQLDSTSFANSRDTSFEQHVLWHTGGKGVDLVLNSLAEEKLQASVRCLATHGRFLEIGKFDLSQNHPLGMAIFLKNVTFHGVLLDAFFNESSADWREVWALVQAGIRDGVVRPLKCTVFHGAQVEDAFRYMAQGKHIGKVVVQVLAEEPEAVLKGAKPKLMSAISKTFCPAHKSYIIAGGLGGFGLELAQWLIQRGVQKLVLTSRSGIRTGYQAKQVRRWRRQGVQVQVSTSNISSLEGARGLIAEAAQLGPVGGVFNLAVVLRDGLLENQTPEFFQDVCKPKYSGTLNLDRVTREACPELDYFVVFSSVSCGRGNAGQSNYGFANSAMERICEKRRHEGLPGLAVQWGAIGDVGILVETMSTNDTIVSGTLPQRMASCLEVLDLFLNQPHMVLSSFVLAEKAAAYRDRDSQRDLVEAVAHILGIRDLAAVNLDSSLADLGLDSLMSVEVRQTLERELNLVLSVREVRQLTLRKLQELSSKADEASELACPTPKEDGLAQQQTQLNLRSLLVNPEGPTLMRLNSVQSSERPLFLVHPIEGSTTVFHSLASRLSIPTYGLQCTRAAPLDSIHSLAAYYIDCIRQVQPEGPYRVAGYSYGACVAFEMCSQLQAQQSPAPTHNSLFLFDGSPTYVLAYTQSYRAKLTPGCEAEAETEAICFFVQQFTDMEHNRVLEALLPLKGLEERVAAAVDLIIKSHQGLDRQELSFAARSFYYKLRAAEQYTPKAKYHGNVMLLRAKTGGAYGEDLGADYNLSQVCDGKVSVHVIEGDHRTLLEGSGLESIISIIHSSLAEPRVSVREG
Sequence of Large T antigen (P03070 whole entry): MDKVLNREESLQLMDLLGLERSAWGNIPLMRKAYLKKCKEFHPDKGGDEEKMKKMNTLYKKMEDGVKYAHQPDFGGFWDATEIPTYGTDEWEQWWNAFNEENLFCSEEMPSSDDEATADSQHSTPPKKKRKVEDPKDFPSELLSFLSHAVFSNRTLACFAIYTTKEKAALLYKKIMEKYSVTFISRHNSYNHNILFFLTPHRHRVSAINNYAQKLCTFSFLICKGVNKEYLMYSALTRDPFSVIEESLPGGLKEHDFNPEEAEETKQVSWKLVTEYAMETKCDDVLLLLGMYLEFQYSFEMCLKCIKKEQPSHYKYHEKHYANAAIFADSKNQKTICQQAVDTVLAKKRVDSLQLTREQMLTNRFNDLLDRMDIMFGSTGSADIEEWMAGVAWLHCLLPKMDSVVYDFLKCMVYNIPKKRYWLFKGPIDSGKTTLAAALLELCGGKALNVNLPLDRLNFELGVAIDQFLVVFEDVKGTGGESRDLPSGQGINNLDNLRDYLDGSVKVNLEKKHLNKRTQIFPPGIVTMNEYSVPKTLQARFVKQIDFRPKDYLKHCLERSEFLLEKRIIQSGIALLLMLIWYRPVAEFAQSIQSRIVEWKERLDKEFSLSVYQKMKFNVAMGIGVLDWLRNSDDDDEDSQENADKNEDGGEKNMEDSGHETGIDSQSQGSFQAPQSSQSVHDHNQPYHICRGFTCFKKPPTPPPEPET

O=c1nc2n(c(O)c1C(c1c(O)nc3n(c1=O)CCS3)c1cccc3ccccc13)CCS2 (configuration not stated)
IC50 [1]: > 100 µM (active)

O=C(CCn1c(=S)[nH]c2ccccc2c1=O)NCCCN1CCCC1=O
IC50 [2]: > 100 µM (inactive)

NC1=NC[C@H](c2ccccc2)N1CCc1cc(C(F)(F)F)cc(C(F)(F)F)c1
IC50 [3]: > 20 µM (inactive)

Cc1ccccc1NC(=O)c1cc(N)ccc1N1CCCCC1
IC50 [1]: 18.9 µM (active)

CCc1cc2c(=O)oc(-c3ccccc3F)nc2s1
IC50 [4]: 1.62 µM (active)
IC50 [5]: 2.48 µM (active)

COC(=O)c1cc(C(=O)Nc2nnc(CC(C)(C)C)s2)cc([N+](=O)[O-])c1
IC50 [4]: 11.2 µM (active)
IC50 [5]: 12.7 µM (active)

CCN(C(=O)COC(=O)c1cc([N+](=O)[O-])ccc1N1CCOCC1)C1CCCCC1
IC50 [4]: 4.08 µM (active)
IC50 [5]: 1.13 µM (active)

Fc1ccc(-c2nc3ccc(Br)cn3c2Cc2ccccc2C(F)(F)F)cc1
IC50 [2]: > 100 µM (inactive)

Cc1cc(C(=O)Nc2cccc3c2O[C@@H](CN(C)Cc2ccc(-c4ccccc4)cc2)[C@@H](C)CN([C@H](C)CO)C3=O)n(C)n1
AC50 [6]: 5.16 µM (active)

C[C@H]1CN([C@@H](C)CO)C(=O)c2cc(NS(=O)(=O)c3ccc(Cl)cc3)ccc2O[C@H]1CN(C)Cc1ccc(C(=O)Nc2ccccc2N)cc1
AC50 [6]: 1.96 µM (active)

COc1ccc(CN(C)C[C@@H]2Oc3c(NC(=O)Nc4ccc(C(F)(F)F)cc4)cccc3C(=O)N([C@H](C)CO)C[C@@H]2C)cc1
AC50 [6]: 1.42 µM (active)

CCNC(=O)C1(C)CCCN1C(=O)c1ccc(C#N)cc1 (configuration not stated)
IC50 [2]: > 100 µM (inactive)

C[C@H](CO)N1C[C@H](C)[C@@H](CN(C)Cc2ccc(C(=O)Nc3ccccc3N)cc2)Oc2c(NS(=O)(=O)c3ccc(Cl)cc3)cccc2C1=O
AC50 [6]: 1.41 µM (active)

C[C@H]1CN([C@@H](C)CO)C(=O)c2cc(NC(=O)Nc3cccc4ccccc34)ccc2O[C@@H]1CN(C)Cc1ccc(Oc2ccccc2)cc1
AC50 [7]: 7.39 µM (active)
AC50 [6]: 4.66 µM (active)

C[C@H]1CN([C@@H](C)CO)C(=O)c2cccc(NC(=O)CCCCCC(=O)Nc3ccccc3N)c2O[C@@H]1CN(C)Cc1ccc(-c2ccccc2)cc1
AC50 [6]: 1.71 µM (active)

C[C@H]1CN([C@@H](C)CO)C(=O)Cc2cc(NC(=O)Nc3ccc(C(F)(F)F)cc3)ccc2O[C@H]1CN(C)Cc1ccc(C(=O)Nc2ccccc2N)cc1
AC50 [6]: 2.13 µM (active)

COc1cc(/C=N\NC(=O)C2CC3C=CC2C3)ccc1O (configuration not stated)
IC50 [1]: 13.3 µM (active)
IC50 [8]: 23.4 µM (active)
